# pIC50: −log10 of the molar value. Several values for one entry are separate records, joined by “and”; a condition that tells them apart may be missing. Identical values can stand only once.
# Test system: 556581-035-R-J1-PDC complex spheroid growth
# Assay: Anticancer human tumor 556581-035-R-J1-PDC patient-derived ovarian carcinoma cell line growth inhibition [AhR]
# Conditions: for viability, T/C: stronger effect = lower value
# From the text: Multicellular complex tumor spheroid response to aryl hydrocarbon receptor antagonists in combination with a variety of drugs and investigational agents in selected tumor cell lines
# The current study was undertaken to assess response to aryl hydrocarbon receptor antagonists in combination with standard-of-care drugs and investigational agents in solid tumor complex spheroid models. Complex spheroids include a stromal component modeled by human endothelial cells (HUVEC) and fibroblasts modeled by human mesenchymal stem cells (MSCs). The concentration ranges selected for each drug and investigational agent were based upon clinically achievable concentrations if the clinical Cmax of the agent was known.
# Compounds. The drugs and investigational agents: BAY 2416964 (NSC825713), GNF351 (NSC835774), CH-223191 (NSC835775), CPI-455 (NSC825282), aza-TdCyd (NSC777586), decitabine (NSC127716), belinostat (NSC758774), entinostat (NSC756642), pevonedistat (NSC761192), tazemetostat (NSC777109), talazoparib (NSC765396), olaparib (NSC753686), selinexor (NSC780203), nedisertib (M3814, NSC802822), bortezomib (NSC756655), venetoclax (NSC766270), doxorubicin (NSC123127), elimusertib (BAY189344, NSC800525), ceralasertib (AZD6738, NSC777638), TAK-243 (NSC785004), alisertib (NSC759677), etoposide (NSC141540), topotecan (NSC609699), eribulin (NSC707389), gemcitabine (NSC613327), carboplatin (NSC241240), cisplatin (NSC119875), and SN-38 (NSC673596) were obtained from the National Cancer Institute (NCI) Developmental Therapeutics Program Chemical Repository (32). The FDA-approved anticancer drug set is available from the Developmental Therapeutics Program at https://dtp.cancer.gov/organization/dscb/obtaining/available plates.htm. […] The stock solutions were prepared in dimethyl sulfoxide (DMSO, Sigma-Aldrich, St. Louis, MO, cat. D2650), except for the platinum compounds which were prepared in saline (Quality Biological, Gaithersburg, MD, cat. 114-055-101), at 800-fold the tested concentration and stored at -70 degrees C prior to their use. All drugs and investigational agents were tested over a range starting from a high concentration at or near the clinical Cmax and decreasing in half-log increments. If the clinical Cmax for an agent had not been determined, the highest concentration tested was 10 microM (Table 1).
# Cell Culture. All cells were maintained in an incubator at 37 degrees C and 5% CO2 with 95% humidity. The PDC lines were cultured according to standard operating procedures established by the NCI PDMR (https://pdmr.cancer.gov). Briefly, all PDCs were thawed and cultured in Matrigel-coated flasks prepared with a working solution of 1X Ham's F-12 nutrient mix, without supplementation (Invitrogen, Waltham, MA, cat. 11765054), 100 U/mL penicillin-streptomycin (Invitrogen, cat. 15140122), and 2.5% Matrigel (Corning Inc., Corning, NY, cat. 354248) for the first three passages. All PDCs were cultured in complete DMEM/F-12 media containing advanced DMEM/F-12 (Invitrogen, cat. 12634028), 4.9% defined fetal bovine serum, heat inactivated (HyClone Laboratories Inc., Logan, UT, cat. SH30070.03HI), 389 ng/mL hydrocortisone (Sigma-Aldrich, cat. H4001), 9.7 ng/mL human EGF recombinant protein (Invitrogen, cat. PHG0313), 23.4 microg/mL adenine (Sigma-Aldrich, cat. A2786), 97.3 U/mL penicillin-streptomycin (Invitrogen, cat. 15140122), 1.9 mM L-glutamine (Invitrogen, cat. 25030081), and 9.7 microM Y-27632 dihydrochloride (Tocris Bioscience, Bristol, United Kingdom, cat. 1254). The PDCs were cultured in complete DMEM/F12 media without 10 microM Y-27632 dihydrochloride for at least two passages prior to the screen. The established cell lines NCI-H1341 and […] were cultured in DMEM/F-12, HEPES (Invitrogen, cat. 11330032), 5% defined fetal bovine serum (HyClone Laboratories Inc., cat. SH30070.03), ITS premix universal culture supplement [insulin (5 microg/mL), transferrin (5 microg/mL), and selenious acid (5 ng/mL)] […]
# [1] = curve of first compound, second compound 0.1 µM
# [2] = curve of first compound, second compound 0.316 µM
# [3] = curve of first compound, second compound 1 µM
# [4] = curve of first compound, second compound 3.16 µM
# [5] = curve of first compound, second compound 10 µM
# [6] = second compound 0.1 µM, first compound 0.0316 µM
# [7] = second compound 0.1 µM, first compound 0.1 µM
# [8] = second compound 0.1 µM, first compound 0.316 µM
# [9] = second compound 0.1 µM, first compound 1 µM
# [10] = second compound 0.1 µM, first compound 3.16 µM
# [11] = second compound 0.1 µM, first compound 10 µM
# [12] = second compound 0.316 µM, first compound 0.0316 µM
# [13] = second compound 0.316 µM, first compound 0.1 µM
# [14] = second compound 0.316 µM, first compound 0.316 µM
# [15] = second compound 0.316 µM, first compound 1 µM
# [16] = second compound 0.316 µM, first compound 3.16 µM
# [17] = second compound 0.316 µM, first compound 10 µM
# [18] = second compound 1 µM, first compound 0.0316 µM
# [19] = second compound 1 µM, first compound 0.1 µM
# [20] = second compound 1 µM, first compound 0.316 µM
# [21] = second compound 1 µM, first compound 1 µM
# [22] = second compound 1 µM, first compound 3.16 µM
# [23] = second compound 1 µM, first compound 10 µM
# [24] = second compound 3.16 µM, first compound 0.0316 µM
# [25] = second compound 3.16 µM, first compound 0.1 µM
# [26] = second compound 3.16 µM, first compound 0.316 µM
# [27] = second compound 3.16 µM, first compound 1 µM
# [28] = second compound 3.16 µM, first compound 3.16 µM
# [29] = second compound 3.16 µM, first compound 10 µM
# [30] = second compound 10 µM, first compound 0.0316 µM
# [31] = second compound 10 µM, first compound 0.1 µM
# [32] = second compound 10 µM, first compound 0.316 µM
# [33] = second compound 10 µM, first compound 1 µM
# [34] = second compound 10 µM, first compound 3.16 µM
# [35] = second compound 10 µM, first compound 10 µM
# 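For viability, T/C in this document: compound exposure lasted 7 days; 100% = DMSO vehicle control growth.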
smiles,measurement,setting,value
Nc1ncn(C2CC(O)C(CO)S2)c(=O)n1 (centres undefined) + CC(CO)NC(=O)c1cc(-c2ccc(Cl)cc2)nn(-c2cnn(C)c2)c1=O,pIC50,[1],< 6.52
same,pIC50,[2],< 6.52
same,pIC50,[3],< 6.52
same,pIC50,[4],< 6.52
same,pIC50,[5],< 6.52
same,"viability, T/C","second compound 0.1 µM, first compound 0.000949 µM",122%
same,"viability, T/C","second compound 0.1 µM, first compound 0.003 µM",117%
same,"viability, T/C","second compound 0.1 µM, first compound 0.00949 µM",106%
same,"viability, T/C","second compound 0.1 µM, first compound 0.03 µM",115%
same,"viability, T/C","second compound 0.1 µM, first compound 0.0949 µM",109%
same,"viability, T/C","second compound 0.1 µM, first compound 0.3 µM",73.3%
same,"viability, T/C","second compound 0.316 µM, first compound 0.000949 µM",112%
same,"viability, T/C","second compound 0.316 µM, first compound 0.003 µM",106%
same,"viability, T/C","second compound 0.316 µM, first compound 0.00949 µM",116%
same,"viability, T/C","second compound 0.316 µM, first compound 0.03 µM",111%
same,"viability, T/C","second compound 0.316 µM, first compound 0.0949 µM",100%
same,"viability, T/C","second compound 0.316 µM, first compound 0.3 µM",69.9%
same,"viability, T/C","second compound 1 µM, first compound 0.000949 µM",114%
same,"viability, T/C","second compound 1 µM, first compound 0.003 µM",131%
same,"viability, T/C","second compound 1 µM, first compound 0.00949 µM",126%
same,"viability, T/C","second compound 1 µM, first compound 0.03 µM",121%
same,"viability, T/C","second compound 1 µM, first compound 0.0949 µM",108%
same,"viability, T/C","second compound 1 µM, first compound 0.3 µM",80.2%
same,"viability, T/C","second compound 3.16 µM, first compound 0.000949 µM",123%
same,"viability, T/C","second compound 3.16 µM, first compound 0.003 µM",128%
same,"viability, T/C","second compound 3.16 µM, first compound 0.00949 µM",125%
same,"viability, T/C","second compound 3.16 µM, first compound 0.03 µM",109%
same,"viability, T/C","second compound 3.16 µM, first compound 0.0949 µM",97.1%
same,"viability, T/C","second compound 3.16 µM, first compound 0.3 µM",80.8%
same,"viability, T/C","second compound 10 µM, first compound 0.000949 µM",122%
same,"viability, T/C","second compound 10 µM, first compound 0.003 µM",111%
same,"viability, T/C","second compound 10 µM, first compound 0.00949 µM",111%
same,"viability, T/C","second compound 10 µM, first compound 0.03 µM",125%
same,"viability, T/C","second compound 10 µM, first compound 0.0949 µM",106%
same,"viability, T/C","second compound 10 µM, first compound 0.3 µM",84%
COc1ccc([C@@H](O)c2cc(-c3ncnc4cc(N5CCOCC5)ccc34)c(F)cc2Cl)nn1 + Cc1cncc(-c2nc(NCCc3c[nH]c4ccccc34)c3ncn(C(C)C)c3n2)c1,pIC50,[1],5.51
same,pIC50,[2],5.14
same,pIC50,[3],5.38
same,pIC50,[4],5.16
same,pIC50,[5],5.01
same,"viability, T/C",[6],113%
same,"viability, T/C",[7],114%
same,"viability, T/C",[8],108%
same,"viability, T/C",[9],72.2%
same,"viability, T/C",[10],51.4%
same,"viability, T/C",[11],45.6%
same,"viability, T/C",[12],110%
same,"viability, T/C",[13],105%
same,"viability, T/C",[14],102%
same,"viability, T/C",[15],77.8%
same,"viability, T/C",[16],60.8%
same,"viability, T/C",[17],45.8%
same,"viability, T/C",[18],111%
same,"viability, T/C",[19],112%
same,"viability, T/C",[20],116%
same,"viability, T/C",[21],87.9%
same,"viability, T/C",[22],53.8%
same,"viability, T/C",[23],42.5%
same,"viability, T/C",[24],103%
same,"viability, T/C",[25],113%
same,"viability, T/C",[26],88.5%
same,"viability, T/C",[27],82.6%
same,"viability, T/C",[28],54.2%
same,"viability, T/C",[29],47.8%
same,"viability, T/C",[30],82.2%
same,"viability, T/C",[31],85.7%
same,"viability, T/C",[32],89.1%
same,"viability, T/C",[33],74.8%
same,"viability, T/C",[34],61.5%
same,"viability, T/C",[35],49.5%
Cn1ncnc1C1c2n[nH]c(=O)c3cc(F)cc(c23)NC1c1ccc(F)cc1 (centres undefined),"viability, T/C",compound 0.000316 µM,108% and 106% and 107%
same,"viability, T/C",compound 0.001 µM,103% and 101% and 102%
same,"viability, T/C",compound 0.00316 µM,101% and 93.3% and 98.7%
same,"viability, T/C",compound 0.01 µM,92.7% and 93.9% and 101%
same,"viability, T/C",compound 0.0316 µM,100% (2×) and 103%
same,"viability, T/C",compound 0.1 µM,94.4% and 98.2% and 94.7%
same,pIC50,curve of compound,< 7.00
CC(C)c1c(-c2ccccc2)nc2c(C#N)c[nH]n2c1=O,"viability, T/C",compound 0.0316 µM,102% and 99.4% and 99.2%
same,"viability, T/C",compound 0.1 µM,105% and 102% and 98.3%
same,"viability, T/C",compound 0.316 µM,92.7% and 106% and 104%
same,"viability, T/C",compound 1 µM,101% and 106% and 99%
same,"viability, T/C",compound 3.16 µM,95.7% and 110% and 93.8%
same,"viability, T/C",compound 10 µM,86.8% and 94.4% and 83.1%
same,pIC50,curve of compound,< 5.00
COc1ccc([C@@H](O)c2cc(-c3ncnc4cc(N5CCOCC5)ccc34)c(F)cc2Cl)nn1 + Cc1ccccc1N=Nc1ccc(NC(=O)c2ccnn2C)c(C)c1,pIC50,[1],5.26
same,pIC50,[2],5.32
same,pIC50,[3],< 5.00
same,pIC50,[4],5.29
same,pIC50,[5],5.36
same,"viability, T/C",[6],107%
same,"viability, T/C",[7],104%
same,"viability, T/C",[8],102%
same,"viability, T/C",[9],78.2%
same,"viability, T/C",[10],59.4%
same,"viability, T/C",[11],41.3%
same,"viability, T/C",[12],104%
same,"viability, T/C",[13],97.2%
same,"viability, T/C",[14],100%
same,"viability, T/C",[15],78%
same,"viability, T/C",[16],55.8%
same,"viability, T/C",[17],41.2%
same,"viability, T/C",[18],112%
same,"viability, T/C",[19],106%
same,"viability, T/C",[20],110%
same,"viability, T/C",[21],75.5%
same,"viability, T/C",[22],56.4%
same,"viability, T/C",[23],47.1%
same,"viability, T/C",[24],89.1%
same,"viability, T/C",[25],95%
same,"viability, T/C",[26],89.1%
same,"viability, T/C",[27],74.6%
same,"viability, T/C",[28],56.8%
same,"viability, T/C",[29],41.5%
same,"viability, T/C",[30],97.8%
same,"viability, T/C",[31],93.4%
same,"viability, T/C",[32],87.3%
same,"viability, T/C",[33],76.9%
same,"viability, T/C",[34],50.4%
same,"viability, T/C",[35],44.8%

# From PubChem BioAssay AID1918999 (Molecular Pharmacology Branch, DTP, NCI, 2023)
